Experimental data published in the NIST ThermoML archive (doi:10.1021/je201107a).

Legend:
[1] = mn = molality of the nth substance listed, in mol/kg; conditions: 298.15 K, Ring tensiometer
[2] = cn = amount concentration of the nth substance listed, in mol/dm3; conditions: 298.15 K, Ring tensiometer

CCCCCCCCCCCC[N+](C)(C)[O-] [Dodecyldimethylamine oxide] + O
[1]
Conditions | surface tension liquid-gas [mN/m]
m1 = 0.00025 | 43.18
m1 = 0.0005 | 39.98
m1 = 0.00074 | 39.2
m1 = 0.00099 | 36.87
m1 = 0.00123 | 35.11
m1 = 0.00148 | 33.73
m1 = 0.00172 | 33.19
m1 = 0.00196 | 33.32
m1 = 0.00244 | 34.06
m1 = 0.00291 | 34.05
m1 = 0.00338 | 34.22
m1 = 0.00385 | 34.14
m1 = 0.00431 | 34.17

CCCCCCCCCC[N+](C)(C)C.[Br-] [N,N,N-trimethyl-1-decanaminium bromide] + O
[2]
Conditions | surface tension liquid-gas [mN/m]
c1 = 0.0118 | 54.43
c1 = 0.0211 | 48.37
c1 = 0.0286 | 45.75
c1 = 0.0348 | 42.87
c1 = 0.04 | 40.18
c1 = 0.0444 | 37.98
c1 = 0.0464 | 37.19
c1 = 0.0483 | 36.21
c1 = 0.05 | 36.15
c1 = 0.0516 | 36.47
c1 = 0.0531 | 35.98
c1 = 0.0545 | 35.88
c1 = 0.0559 | 36.19
c1 = 0.0571 | 36.31

CCCCCCCCCCCC[N+](C)(C)C.[Br-] [dodecyltrimethylammonium bromide] + O
[1]
Conditions | surface tension liquid-gas [mN/m]
m1 = 0.0005 | 55.13
m1 = 0.00099 | 55.56
m1 = 0.00148 | 53.67
m1 = 0.00196 | 53.93
m1 = 0.00244 | 53.53
m1 = 0.00291 | 52.63
m1 = 0.00338 | 52.13
m1 = 0.00476 | 49.16
m1 = 0.00654 | 45.2
m1 = 0.00826 | 42.32
m1 = 0.00991 | 39.41
m1 = 0.0115 | 36.77
m1 = 0.013 | 34.09
m1 = 0.0138 | 34.98
m1 = 0.0145 | 37.44
m1 = 0.0153 | 37.98
m1 = 0.016 | 38.33
m1 = 0.0167 | 38.47
m1 = 0.0177 | 38.69
m1 = 0.0184 | 38.46

CCCCCCCCCCCCCC[N+](C)(C)C.[Br-] [tetradecyltrimethylammonium bromide] + O
[1]
Conditions | surface tension liquid-gas [mN/m]
m1 = 0.0005 | 53.96
m1 = 0.00099 | 52.31
m1 = 0.00148 | 46.35
m1 = 0.00196 | 41.65
m1 = 0.00244 | 39
m1 = 0.00291 | 36.35
m1 = 0.00338 | 34.05
m1 = 0.00385 | 33.87
m1 = 0.00431 | 35.02
m1 = 0.00476 | 36.24
m1 = 0.00521 | 35.86
m1 = 0.00566 | 36.33
m1 = 0.0061 | 36.74
m1 = 0.00654 | 36.6
m1 = 0.00698 | 36.81
